Experimental data published in US3952051A, “Method for crystallization of diamine dicarboxylate” (Asahi Kasei Kogyo Kabushiki Kaisha, priority 1971, dated 1976).

Experiment: Size of crystals collected after neutralization

## hexamethylenediamine adipate
Example 1, from aqueous medium, pH 7.5, 60°C.
  Average size of crystals: 700 microns
Comparative example, methanol as solvent
  Grain size of collected crystals: about 250 microns
